# Reference: PMC11939996 (Biomolecules, 2025)
# Key:
# [1] = target: Toll-like receptor 4 (Homo sapiens) (UniProt O00206); settings: cited from earlier work
# [2] = target: RAGE V domain (Homo sapiens) (UniProt Q15109); settings: cited from earlier work
# Aβ40 fibrillation = test: Transmission electron microscopy of Aβ40 fibrils; set-up: species or system human; settings: 20 μM Aβ40 alone or with 4 μM S100A8 or S100A9, after ThT assay (30 °C, pH 7.4)
# Procedure: A 300-mesh copper grid coated with a 0.2% formvar film was placed onto a 10 µL drop of the sample. After allowing the sample (after the ThT fluorescence assay) to adsorb for 10 min, the grid was negatively stained for 2 min using a 1% (w/v) aqueous solution of uranyl acetate. Excess staining solution was removed with filter paper, followed by a 1 min rinse in deionized water. The samples were examined using a JEM-1400Plus (HC) transmission electron microscope (JEOL, Ltd., Tokyo, Japan) operated at 80 keV.
# Toll-like receptor 4 = settings: in the presence of Ca^2+ and Zn^2+; cited from earlier work
# Aβ40/Aβ42 = test: Chemical cross-linking with glutaraldehyde, SDS-PAGE; assay type: binding, human; settings: faint band; 0.02% glutaraldehyde, 37 °C, 1 h, 25–75 μM S100A8, 20 μM Aβ40/Aβ42, pH 7.4
# Procedure: The protein solution was incubated at 25 °C for 30 min prior to the cross-linking.
# HSA–Aβ40 interaction = test: BLI competition: HSA interaction with monomeric Aβ40 in presence of S100A8/S100A9; assay type: binding, human; settings: 67 µM HSA with 12 µM S100A8 or 7 µM S100A9; 25 °C, pH 7.4, 2.5 mM CaCl2
# Procedure: (§1) Next, 96-well microplates with analyte solutions were kept at 25 °C and shaken at 1000 rpm. The Aβ samples were pretreated with neat TFA, followed by dissolution in DMSO as described in ref. [61, 66]. The pretreated ligand (5 μg/mL Aβ40/Aβ42 in 10 mM sodium acetate, pH 4.5 buffer) was immobilized onto Octet® AR2G biosensor (Sartorius AG, Göttingen, Germany) by amine coupling using EDAC/sulfo-NHS to achieve the loading level of 3.5 nm. The rest of the activated amine groups on the sensor were blocked by 1 M ethanolamine solution. The noncovalently bound ligand molecules were washed off the sensor with a 0.5% SDS water solution, followed by passage of the assay buffer (20 mM Tris-HCl, 140 mM NaCl, 4.9 mM KCl, 2.5 mM CaCl2, 1 mM MgCl2, pH 7.4), resulting in the loading level of 1.5 nm. […] The sensor surface was regenerated by the passage of 0.5% SDS water solution for 30 s.
# HSA–Aβ42 interaction = test: BLI competition: HSA interaction with monomeric Aβ42 in presence of S100A8/S100A9; assay type: binding, human; settings: 67 µM HSA with 12 µM S100A8 or 7 µM S100A9; 25 °C, pH 7.4, 2.5 mM CaCl2
# Procedure: as §1
# monomeric Aβ42 = test: Bio-layer interferometry, analyte binding to immobilized monomeric Aβ42; set-up: species or system human; settings: for ka × 10^−2: association, bivalent analyte model, number is ka multiplied by 10^−2, 25 °C, pH 7.4, 2.5 mM CaCl2, mean ± SD, n = 3–4
# Procedure: (§2) Next, 96-well microplates with analyte solutions were kept at 25 °C and shaken at 1000 rpm. The Aβ samples were pretreated with neat TFA, followed by dissolution in DMSO as described in ref. [61, 66]. […] The rest of the activated amine groups on the sensor were blocked by 1 M ethanolamine solution. […] The sensor surface was regenerated by the passage of 0.5% SDS water solution for 30 s.
# (§3) The direct interaction of S100 proteins with monomeric Aβ was studied by biolayer interferometry in the buffer conditions mimicking the physiological conditions (20 mM Tris-HCl, 140 mM NaCl, 4.9 mM KCl, 2.5 mM CaCl2, 1 mM MgCl2, pH 7.4).
# (§4) Since the S100 proteins are predominantly dimeric, their BLI sensograms were described within the bivalent analyte model (1), taking into account that the dimer concentration is half of the monomer concentration.
# RAGE V domain = settings: cited from earlier work
# monomeric Aβ40 = test: Bio-layer interferometry, analyte binding to immobilized monomeric Aβ40; set-up: species or system human; settings: association; bivalent analyte model; number is ka multiplied by 10^−2; 25 °C, pH 7.4, 2.5 mM CaCl2; mean ± SD, n = 3–4
# Procedure: as §2, §3, §4
# Aβ40 = settings: cited from earlier work
# Text: Another component colocalized with senile plaques and associated with AD are specific members of the S100 protein family (reviewed in ref. [36]). The S100 family contains over two dozen small (9–13 kDa) multifunctional Ca^2+-binding proteins of the EF-hand superfamily, defined by the presence of the EF-hand motif, which coordinates a calcium ion through a loop located between two α-helices. Some S100 proteins affect cognitive processes, neuronal development and maintenance, APP processing, Aβ levels, the formation of amyloid plaques, post-translational modif ...
# RAGE V domain (Homo sapiens), sequence (Q15109 23-116): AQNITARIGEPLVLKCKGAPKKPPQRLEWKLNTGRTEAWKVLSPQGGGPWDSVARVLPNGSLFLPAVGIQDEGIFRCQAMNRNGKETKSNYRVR
# Toll-like receptor 4 (Homo sapiens), sequence (O00206 24-839): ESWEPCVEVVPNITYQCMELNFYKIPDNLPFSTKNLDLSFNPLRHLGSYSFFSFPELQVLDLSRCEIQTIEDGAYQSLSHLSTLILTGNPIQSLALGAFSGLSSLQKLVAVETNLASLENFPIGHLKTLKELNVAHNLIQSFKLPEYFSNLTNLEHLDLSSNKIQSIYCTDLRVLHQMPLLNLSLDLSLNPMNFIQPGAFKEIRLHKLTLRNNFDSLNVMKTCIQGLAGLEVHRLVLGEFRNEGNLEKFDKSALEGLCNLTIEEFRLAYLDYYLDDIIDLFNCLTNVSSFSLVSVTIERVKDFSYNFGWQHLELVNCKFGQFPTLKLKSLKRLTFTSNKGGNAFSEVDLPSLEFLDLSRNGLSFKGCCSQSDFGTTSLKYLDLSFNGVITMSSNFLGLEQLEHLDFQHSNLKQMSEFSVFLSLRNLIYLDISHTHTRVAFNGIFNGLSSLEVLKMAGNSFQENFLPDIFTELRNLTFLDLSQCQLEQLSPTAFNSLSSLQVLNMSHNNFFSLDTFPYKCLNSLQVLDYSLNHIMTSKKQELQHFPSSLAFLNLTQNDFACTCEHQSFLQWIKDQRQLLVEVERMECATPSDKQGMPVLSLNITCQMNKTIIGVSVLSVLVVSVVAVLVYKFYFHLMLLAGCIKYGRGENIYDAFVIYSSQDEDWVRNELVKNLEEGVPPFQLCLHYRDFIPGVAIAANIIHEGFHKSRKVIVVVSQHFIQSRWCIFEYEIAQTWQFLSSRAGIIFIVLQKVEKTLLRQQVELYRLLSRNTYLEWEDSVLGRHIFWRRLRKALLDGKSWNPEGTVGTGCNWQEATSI
# S100A9, sequence (P06702 whole entry): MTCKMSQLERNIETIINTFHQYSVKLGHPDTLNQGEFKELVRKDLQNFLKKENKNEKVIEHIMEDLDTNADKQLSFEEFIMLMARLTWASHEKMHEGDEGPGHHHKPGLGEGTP
substance,measurement,setting,value
S100A8 (from UniProt P05109),Kd,[1],1 µM
S100A9 (from UniProt P06702),Kd,[2],5.5 µM
"Aβ40: Recombinant human amyloid-β peptide, 40 residues, prepared in E. coli",fibril morphology by TEM,Aβ40 fibrillation,dense clusters of the intertwined mature fibrils reaching microns in length
S100A8: Recombinant human S100A8 prepared in E. coli; pro-inflammatory EF-hand Ca2+-binding protein,Kd,Toll-like receptor 4,1 µM
same,band of cross-linked complex of S100A8 and Aβ monomers,Aβ40/Aβ42,about 15 kDa
same,maximal BLI signal of HSA interaction with Aβ40,HSA–Aβ40 interaction,marked decline in the maximal BLI signal
same,maximal BLI signal of HSA interaction with Aβ42,HSA–Aβ42 interaction,marked decline in the maximal BLI signal
same,accelerated association with Aβ42 versus Aβ40,monomeric Aβ42; Aβ42 vs Aβ40,1.5 fold
same,slower dissociation from Aβ42 versus Aβ40,monomeric Aβ42; Aβ42 vs Aβ40,2.4 fold
same,ka × 10^−2,monomeric Aβ42,3.4 ± 0.9 M^−1s^−1
S100A9: Recombinant human S100A9 prepared in E. coli; pro-inflammatory EF-hand Ca2+-binding protein,Kd,RAGE V domain,5 to 6 µM
same,ka × 10^−2,monomeric Aβ40,2.6 ± 1.0 M^−1s^−1
same,maximal BLI signal of HSA interaction with Aβ40,HSA–Aβ40 interaction,marked decline in the maximal BLI signal
same,maximal BLI signal of HSA interaction with Aβ42,HSA–Aβ42 interaction,marked decline in the maximal BLI signal
same,direct S100A9–Aβ40 interaction by NMR,Aβ40,direct S100A9–Aβ40 interaction
same,ka × 10^−2,monomeric Aβ42,4.5 ± 1.3 M^−1s^−1
